# From US10829427B2, “Naphthoquinones, pro-drugs, and methods of use thereof” (The Board of Regents of the University of Texas System, priority 2015, dated 2020)
# Where two headings read alike, the source gives them in different places.
# What was measured:
# [1] = system: subcutaneous MiaPaca-2 model; assay: In vivo anti-tumor efficacy, nude mice bearing subcutaneous MiaPaca-2 model; design: species or system Athymic Nu/Nu nude female mice; conditions: subcutaneous MiaPaca-2 tumor model, FIG. 8
# Experimental: Survival and Antitumor Efficacies. 6- to 8-week-old NOD-SCID female mice were tail-vein administrated with luciferase gene-transfected A549 cells (1.0×106), and randomized into groups (n=7-13/group), monitored for tumor formation in the lungs using bioluminescence (BLI) following treatment with vehicle, β-lap-HPβCD, or NQ-059-HPβCD. An average of 1.0×10^7 total photons was used before any therapies were given as described (Huang, et al., 2012). Animals were treated with vehicle, β-lap-HPβCD (20 mg/kg), or NQ-059-HPβCD (15 and 12 mg/kg) via tail vein and repeated five times every 3 days. Tumor-bearing mice were imaged using BLI to estimate relative tumor volumes as described (Ma, et al., 2015) using D-luciferin (Promega, 2.5 mg, subcutaneously injected). Relative tumor volume estimates were derived from BLI images of mice captured using a Xenogen Vivovision IVIS Lumina Imager (60 s exposure time). Animals were monitored daily for survival and morbidity. Mortality was recorded over times as a result of cancer-related deaths or drug-related toxicities (≥20% body weight loss relative to the start of therapy). Athymic Nu/Nu nude female mice (18-20 grams) were commercially obtained (Harlan). […] Tumors were measured at indicated times with digital calipers (Fisher Scientific), and tumor volumes calculated (length×width^2×0.5). […]
# [2] = system: A549; assay: Relative survival DNA assay, A549, with or without dicoumarol; type: cell-based, human; conditions: for IC50: read-out: Inhibition of cell survival of DNA assay IC50
# Experimental: (§1) Cell Lines and Culture. Endogenous NQO1 overexpressing human MiaPaca-2 (pancreatic carcinoma), A549 (None-small cell lung carcinoma), and MCF-7 (breast adenocarcinoma) were obtained (Bey, et al., 2007; Li, et al., 2011). All cell lines were grown in DMEM (Life Technologies) containing 5%-10% FBS (Fisher Scientific) in a 5% CO2 and 95% air incubator at 37° C.
# (§2) Relative Survival Assays. Relative survival was assessed by DNA content and colony forming assays as described (Dong, et al., 2010). Briefly, for DNA content, cells were seeded at 1×10^4 per well in 48-well plates and allowed to attach overnight. Cells were then mock treated or treated with various doses of naphthaquinones (for 2 hours) in the presence or absence of dicoumarol as indicated. Drug-free medium was then added and cells were allowed to grow for 5 to 7 days until control cells reached ˜100% confluence. DNA content was then determined by Hoechst 33258 staining and fluorescence detection using a plate reader (Perkin-Elmer).
# [3] = system: MiaPaca 2; assay: Relative survival DNA assay, MiaPaca 2, with or without dicoumarol; type: cell-based, human; conditions: for IC50: read-out: Inhibition of cell survival of DNA assay IC50
# Experimental: as §1, §2
# [4] = system: Mia PaCa-2 cells; assay: ATP assay (ATP depletion / cell viability) in Mia PaCa-2 cells; type: cell-based, human; conditions: for IC50: read-out: Inhibition of cell viability of ATP assay IC50
# Experimental: (§3) In vitro anti-cancer activity of the compound were performed using ATP Assay Kit (Abcam, ab83355) to initially screen, and further performed using 7-day DNA assay.
# (§4) Cell culture: endogenous NQO1 overexpressing human MIA PaCa-2 pancreactic and A549 NSCLC cancer cells were obtained (Bey, et al., 2007; Li, et al., 2011). Cancer cells were grown in DMEM with 5% FBS and Mycoplasma free, and cultured at 37° C. in a 5% CO2 95% air humidified atmosphere.
# ATP assay: Cells were seeded into each well of a 96-well plate (15000 cells/well) 18 hours ahead of experiment. After aspiration of the media from each well, 100 μl drug-contained media was added instead, and further incubated for 2 hours. After incubation, 100 μl ATP assay kit mixture was added into every well. Following further shaking for 10 minutes with light proof, the data were collected by reading luminescence integrate 1 second per well.
# [5] = system: red blood cells; assay: Methemoglobinemia assay; conditions: formulated with cyclodextran 1:30; relative to a blank cyclodextran or a DMSO vehicle, FIG. 10
# Experimental: Methemoglobinemia assay. Collected red blood cells were suspended in 96 well plates or single wells, then were treated with drug for certain time at 37° C. Immediately after the treatment completed, the cells were sit in ice-bath and lysed with 5% Triton X-100. The clear solution afforded were tested with UV-vis at 630 nm, and then were treated with […] K3FeCN6 for 1 min. The yellow solution afforded was tested again at 630 nm.
# [6] = system: A549 cells; assay: Cell viability in A549 cells (7-day DNA assay); type: cell-based, human; conditions: relative to β-lapachone
# Experimental: as §3, §4
# DNA assay: Cells were seeded into each well of a 48-well plate (10000 cells/well) 24 hours ahead of experiment. After aspiration of the media from each well, 500 μl drug-contained media was added instead, and further incubated for 2 hours. Drugs were then removed, control growth medium was added, and cells were allowed to grow for an additional 7 days. Drugs were added to medium at a 1:1000 dilution immediately before administration to cells. DNA content (a measure of cell growth) was determined by fluoresence of the DNA dye Hoescht 33258 (Sigma), and read in a Cytofluor fluoresence plate reader. Data were expressed as relative growth with 6 repetitions.
# [7] = system: orthotopic A549 model; assay: In vivo anti-tumor efficacy, NOD-SCID mice bearing orthotopic A549 model; conditions: for Survival relative to vehicle: orthotopic A549, FIG. 7C
# Experimental: Formulation. β-lap-HPβCD formulation was prepared according to our previous report.^14 NQ-059 and HPβCD (1:45, w/w) were dissolved in EtOH, and then concentrated in vacuo to form a thin film or a sponge-like film. PBS was added, and a clear solution was formed with shaking. Immediately filtration through a Ø 0.45 µm filter (Whatman), a stable solution was afforded, whose concentration was quantified by UV-vis at 256 nm.
# Survival and Antitumor Efficacies. 6- to 8-week-old NOD-SCID female mice were tail-vein administrated with luciferase gene-transfected A549 cells (1.0×106), and randomized into groups (n=7-13/group), monitored for tumor formation in the lungs using bioluminescence (BLI) following treatment with vehicle, β-lap-HPβCD, or NQ-059-HPβCD. An average of 1.0×10^7 total photons was used before any therapies were given as described (Huang, et al., 2012). Animals were treated with vehicle, β-lap-HPβCD (20 mg/kg), or NQ-059-HPβCD (15 and 12 mg/kg) via tail vein and repeated five times every 3 days. Tumor-bearing mice were imaged using BLI to estimate relative tumor volumes as described (Ma, et al., 2015) using D-luciferin (Promega, 2.5 mg, subcutaneously injected). Relative tumor volume estimates were derived from BLI images of mice captured using a Xenogen Vivovision IVIS Lumina Imager (60 s exposure time). Animals were monitored daily for survival and morbidity. Mortality was recorded over times as a result of cancer-related deaths or drug-related toxicities (≥20% body weight loss relative to the start of therapy). Athymic Nu/Nu nude female mice (18-20 grams) were commercially obtained (Harlan). Human xenografts were generated by injecting 2×10^6 MiaPaca-2 cells subcutaneously in PBS/Matrigel into 6-week-old mice. Tumors were measured at indicated times with digital calipers (Fisher Scientific), and tumor volumes calculated (length×width^2×0.5). Treatments were initiated when subcutaneous tumors reached an average size of >100 mm (Cao, et al., 2003).
# [8] = system: blood; assay: Hemolysis assay; conditions: formulated with cyclodextran 1:30; relative to a blank cyclodextran or a DMSO vehicle, FIG. 9
# Excerpt: Hemolysis assay. Hemolysis was quantified and modified according to method previously described (Blanco, et al., 2010). Briefly, after treatment with the blood, the plasma was separated and tested with UV-Vis at 576 nm, and hemolysis was quantified comparing treatment group and control group.
# [9] = system: MCF-7; assay: Relative survival DNA assay, MCF-7, with or without dicoumarol; type: cell-based, human; conditions: for IC50: read-out: Inhibition of cell survival of DNA assay IC50
# Experimental: as §1, §2
# [10] = system: H596; assay: Relative survival DNA assay, H596 (low NQO1 expression); type: cell-based; conditions: for IC50: H596 (low NQO1 expression), Vehicle, read-out: Inhibition of cell survival of DNA assay IC50
# Experimental: as §2
smiles,measurement,setting,value
"CC(=O)Nc1cccc2c1C(=O)C(=O)C=C2OC(C)C [Compound 24, N-(5-isopropoxy-7,8-dioxo-7,8-dihydronaphthalen-1-yl)acetamide]",Tumor volume relative to the vehicle,[1],statistically significant improvement
same,Activity relative to β-lapachone on the same plate,"[2]; A549, FIG. 5B",increased activity
same,DNA amount in survival assay relative to β-lapachone,"[2]; A549, FIGS. 4G-4I",decreased DNA amounts at lower concentrations relative to β-lapachone
same,Fold (IC50 β-lap/IC50 NQ-059),"[2]; DNA assay, A549, Vehicle",3.9
same,IC50,"[2]; Homo sapiens, A549, A549, Dic (dicoumarol, NQO1 inhibitor)",> 10 µM
same,IC50,"[2]; Homo sapiens, A549, A549, Vehicle",1.25 µM
same,Fold (IC50 β-lap/IC50 NQ-059),"[3]; DNA assay, MiaPaca 2, Vehicle",4.9
same,IC50,"[3]; Homo sapiens, MIA PaCa-2, MiaPaca 2, Dic (dicoumarol, NQO1 inhibitor)",> 10 µM
same,IC50,"[3]; Homo sapiens, MIA PaCa-2, MiaPaca 2, Vehicle",0.88 µM
same,Activity relative to β-lapachone on the same plate,"[3]; MiaPac2, FIG. 5A",increased activity
same,DNA amount in survival assay relative to β-lapachone,"[3]; MiaPaca 2, FIGS. 4A-4C",decreased DNA amounts at lower concentrations relative to β-lapachone
same,Fold (IC50 β-lap/IC50 NQ-059),"[4]; ATP assay, MiaPac-2, Vehicle",2.9
same,IC50,"[4]; Homo sapiens, MIA PaCa-2, MiaPac-2, Vehicle",970 nM
same,IC50/IC50 (β-lapachone/Compoud),[4]; Relative activity compare with β-lapachone in ATP depletion of Mia PaCa-2 cells,>3
same,Methemoglobinemia,[5],reduced toxicity
same,IC50/IC50 (β-lapachone/Compoud),[6],>3
same,Tumor growth via bioluminescence imaging,"[7]; after 74 days, 12 mg/kg",some growth
same,Tumor growth via bioluminescence imaging,"[7]; after day 44, 12 mg/kg",Neither 12 mg/kg or 15 mg/kg NQ-059 showed any tumor growth
same,Tumor growth via bioluminescence imaging,"[7]; after day 44, 15 mg/kg",Neither 12 mg/kg or 15 mg/kg NQ-059 showed any tumor growth
same,Tumor volume relative to vehicle,"[7]; orthotopic A549, FIG. 7B",significantly improved over the vehicle
same,Survival relative to vehicle,[7],significantly improved over the vehicle
same,Hemolysis,[8],reduced toxicity
same,Fold (IC50 β-lap/IC50 NQ-059),"[9]; DNA assay, MCF-7, Vehicle",2.2
same,IC50,"[9]; Homo sapiens, MCF7, MCF-7, Dic (dicoumarol, NQO1 inhibitor)",> 10000 nM
same,IC50,"[9]; Homo sapiens, MCF7, MCF-7, Vehicle",950 nM
same,DNA amount in survival assay relative to β-lapachone,"[9]; MCF-7, FIGS. 4D-4F",decreased DNA amounts at lower concentrations relative to β-lapachone
same,DNA amount in survival assay,"[10]; H596, FIG. 4J",lowest amount of DNA at the lowest concentration
same,IC50,"[10]; Homo sapiens, NCI-H596",> 10 µM
"CC1(C)CCC2=C(O1)c1ccccc1C(=O)C2=O [β-lapachone, reference compound]",Tumor volume relative to the vehicle,[1],did not
same,IC50,"[2]; A549, Dic (dicoumarol, NQO1 inhibitor)",> 10 µM
same,IC50,"[2]; A549, Vehicle",4.94 µM
same,IC50,"[3]; MiaPaca 2, Dic (dicoumarol, NQO1 inhibitor)",> 10 µM
same,IC50,"[3]; MiaPaca 2, Vehicle",4.33 µM
same,IC50,"[4]; MiaPac-2, Vehicle",2790 nM
same,Tumor growth via bioluminescence imaging,"[7]; after 74 days, β-lap-HPβCD 20 mg/kg",some tumor growth
same,Tumor growth via bioluminescence imaging,"[7]; after day 44, β-lap-HPβCD 20 mg/kg",some minor tumor growth
same,Survival relative to vehicle,[7],small improvement over vehicle
same,IC50,"[9]; MCF-7, Dic (dicoumarol, NQO1 inhibitor)",9020 nM
same,IC50,"[9]; MCF-7, Vehicle",2100 nM
same,IC50,[10],> 10 µM
